Laboratory results: US4855320A, “5-arylalkyl-4-alkoxy-2(5H)-furanones, intermediates and processes for the preparation thereof and medicaments containing them” (Dr. Willmar Schwabe GmbH & Company, priority 1986, dated 1989)
Where two headings read alike, the source gives them in different places.

Assays:
[1] = system: maximum electroshock spasm (MES) in male mice (NMRI); test: MES test (maximum electroshock spasm), inhibition of the extensor spasm; assay type: in vivo; settings: Mus musculus; for ED50: read-out: ED 50 in the MES test; for responders at 100 mg/kg / responders at 50 mg/kg: read-out: protective action after 1 hr. (MES test); for responders at 50 mg/kg: 50 mg/kg p.o.
[2] = Neurotoxicity observation (motility, muscle tonus, respiratory frequency, body temperature, general behaviour); design: species or system mice (NMRI); settings: in vivo, po, mouse
Procedure: During the above-described experiments, the animals were observed during the whole of the experimental period (up to 4 hours) for signs of substance-caused changes of behaviour and neurotoxicity (motility, muscle tonus, respiratory frequency, body temperature and general behaviour).

[3] = system: rats; test: Orientating toxicological investigations on rats; assay type: in vivo; settings: up to an oral dosage of 1000 mg./kg.
[4] = read-out: Neurotoxic limiting dose in the mouse
[5] = po, 100 mg/kg p.o., mice, 1 hr., % of animals protected 100% against the extensor spasm
[6] = oral, mice, 1 hour after administration

| Structure (SMILES) | responders at 100 mg/kg [1, 5] | ED50 [1, 6] | mortality of rats [3] | also measured |
| --- | --- | --- | --- | --- |
| CCCC(CCC)C(=O)O [valproic acid, reference compound] |  |  |  | ED50 ([1]; ip, 1 h): 205 mg/kg; responders at 100 mg/kg ([1]; po, 1 h): 0%; TD50 [2, 4]: 350 mg/kg |
| CCC1(C)CC(=O)NC1=O (stereo not shown) [Ethosuximide, reference compound] | 0% | > 250 mg/kg |  | TD50 [2]: 500 mg/kg |
| CCC1(c2ccccc2)C(=O)NC(=O)NC1=O [phenobarbital, reference compound] |  |  |  | ED50 ([1]; po, 1 h): 19.2 mg/kg; responders at 100 mg/kg ([1]; po, 1 h): 100%; TD50 [2, 4]: 60 mg/kg |
| CCCC(C)C1(CC)C(=O)NC(=O)NC1=O (stereo not shown) [pentobarbital, reference compound] |  |  |  | ED50 ([1]; sc, 1 h): 35.2 mg/kg; TD50 [2, 4]: 60 mg/kg |
| COC1=CC(=O)O[C@H]1[C@H](O)c1ccccc1 (relative stereo) [Example 65, threo-4-methoxy-5-phenylhydroxymethyl-2(5H)-furanone] | 79% | 69 mg/kg | no mortality of the animals |  |
| COC1=CC(=O)O[C@H]1[C@H](O)c1cc(Cl)ccc1Cl (relative stereo) [Example 81, threo-5-(2,5-dichlorophenylhydroxymethyl)-4-methoxy-2(5H)-furanone] | 100% | 19.5 mg/kg | no mortality of the animals |  |
| COC1=CC(=O)O[C@H]1[C@H](O)c1ccccc1Cl (relative stereo) [Example 64, threo-5-(2-chlorophenylhydroxymethyl)-4-methoxy-2(5H)-furanone] | 100% | 19.8 mg/kg | no mortality of the animals |  |
| O=C1NC(=O)C(c2ccccc2)(c2ccccc2)N1 [diphenylhydantoin, reference compound] |  |  |  | ED50 ([1]; 1 h, (4 h), mice): 9.1 mg/kg; responders at 50 mg/kg ([1]; po, mice, 1 hr.): 100%; TD50 [2]: 100 mg/kg |
| NC(=O)N1c2ccccc2C=Cc2ccccc21 [carbamazepine, reference compound] |  | 14.6 mg/kg |  | responders at 50 mg/kg ([1]; po, mice, 1 hr.): 100%; TD50 [2]: 100 mg/kg |
| COCO[C@H](c1ccccc1)[C@@H]1OC(=O)C=C1OC (relative stereo) [Example 113, threo-4-methoxy-5-[methoxymethoxy-(phenyl)-methyl]-2(5H)-furanone] | 100% |  |  |  |
| COC1=CC(=O)O[C@H]1[C@H](O)c1ccc(Cl)cc1Cl (relative stereo) [Example 79, threo-5-(2,4-dichlorophenylhydroxymethyl)-4-methoxy-2(5H)-furanone] | 60% | 82.5 mg/kg | no mortality of the animals |  |
| COCO[C@H](c1ccccc1F)[C@@H]1OC(=O)C=C1OC (relative stereo) [Example 115, threo-4-methoxy-5-[methoxymethoxy-(2-fluorophenyl)-methyl]2(5H)-furanone] | 100% |  |  |  |
